Results reported in patent EP0558569B1, “MEDICAMENTS CONTAINING SULPHONAMIDES, NOVEL SULPHONAMIDES AND PROCES FOR PRODUCING THEM” (BOEHRINGER MANNHEIM GMBH, priority 1990, dated 1992).

Key:
P 388 D.1 Makrophagen = experiment: Inhibition of cholesterol ester formation in macrophages under conditioned human plasma LDL (after Huber et al. 1990); assay type: cell-based; conditions: for inhibition at 10 µM / IC50: Mus musculus, P388D1, 18 h; for inhibition at 10 µM: read-out: Hemmung der Cholesterinesterbildung in Macrophagen (P388D.1) 10 »M %; for IC50: read-out: Hemmung der Cholesterinesterbildung in Macrophagen (P388D.1) IC₅₀
Protocol: (§1) e) In-vitro-Wirkung der Verbindungen der Formel I und I' Hemmung der Cholesterinesterbildung in Makrophagen (nach Huber et al. (1990) Free Rad. Res. Comms. 8, 167-173): Humanplasma-LDL wurde durch sequenzielle Ultrazentrifugation bei präselektierten Dichten aus dem Plasma gesunder männlicher Nichtraucher isoliert und für 5 h bei 37° C in F-10 Medium + 1 »M Cu(II) zur Depletion seiner lipophilen Antioxidantien inkubiert. Die Bildung von Cholesterinestern in P 388 D.1 Makrophagen unter Einfluß von konditioniertem human Plasma-LDL wurde nach 18 h Inkubation der Zellen (2 x 10⁶/ml) in F-10 Medium + 1 » M Cu(II) + 50 »g/ml LDL + 5 % FCS nach Extraktion der Neutralfette dünnschichtchromatographisch gemessen. […] Stabilisierung von Plasma-LDL (nach Huber et al. (1990) Free Rad. Res. Comms. 8, 167-173): LDL (125 »g Protein/ml) wurde in 20 mM Tris-Cl pH 8, 150 mM NaCl, 10 »M CuCl₂ mit und ohne Testverbindung (gelöst in Äthanol, Äthanolendkonzentration 0,5 %) bei 42° C oxidiert. Es wurden jeweils 3 Moleküle Testsubstanz pro LDL-Partikel eingesetzt. Die Oxidation wurde kontinuierlich photometrisch bei A 234 durch die Messung der Dienbildung verfolgt. Die sogenannte "lag Phase" ist als dasjenige Zeitintervall definiert, das sich aus dem Schnittpunkt der Tangente der Kurve während der Propagationsreaktion der Lipidperoxidation und er Zeitachse ergibt. […] Hemmung der Sojabohnenlipoxygenase (15-Lipoxygenase) am LDL-Substrat (nach Cathcart et al. (1991) J. Lipid Res. 32, 63-70): LDL (100 »g Protein/ml) wurde in 20 mM Tris-Cl pH 8,3, 150 mM NaCl mit und ohne Testsubstanz (gelöst in Äthanol, Endkonzentration des Äthanol 0,5 %) mit 5000 U/2ml Sojabohnen-Lipoxygenase (Sigma, München) bei 37° C inkubiert: Die Oxidation wurde durch Messung der Diene kontinuierlich bei A 234 verfolgt. Als IC₅₀-Wert wird diejenige Konzentration der Testverbindung angegeben, die zur Halbierung der im Testansatz über die Zeit linearen Dienbildung führt.

Plasma-LDL = experiment: Stabilisation of plasma LDL against Cu(II) oxidation: prolongation of the lag phase of diene formation (A 234); assay type: biochemical, human; conditions: 3 Moleküle Testsubstanz pro LDL-Partikel; LDL 125 »g Protein/ml, 10 »M CuCl₂, pH 8, 42° C
Protocol: as §1

[1] = system: Ratten mit diätetisch induzierter Hypercholesterinämie; experiment: Dose-dependent effect on serum cholesterol in rats with diet-induced hypercholesterolaemia; assay type: in vivo, SD Ratten; conditions: for S-Cholesterin: 4 days on 2 % Cholesterin/0,2 % Cholsäure diet, measured day 5, Mittelwerte +/- SEM, n=6; for % Kontrollen: S-Cholesterin as % of controls (dose 0 = 100)
Text: Die Verbindungen der Formel I bzw. I' sind Antioxidantien-Sulfonamidanaloga, die Hemmstoffe der Cholesterinesterbildung in der Arterienwand zur Behandlung der Arteriosklerose darstellen. a) Die Zytogenese der Atheromatose Hypercholesterinämie und Syndrome von Hypercholesterinämie/Hypertriglyceridämie Syndrome sind Risikofaktoren für die vorzeitige Arteriosklerose. In der Pathogenese der arteriosklerotischen Läsion selbst spielt die oxidative Modifikation von Lipoproteinen in der Arterienwand eine wichtige Rolle. Sie führt zur Freisetzung von chemotaktisch wirksamen Mediatoren und zur Wanderung von makrophagozytären Zellen aus dem Blut in die Arterienwand. In der Gefäßwand nehmen Makrophagen besonders intensiv oxidativ verändertes low-density lipoprotein (LDL) unreguliert auf. Die damit verbundene Erhöhung des Cholesterininfluxes und die Belastung des zellulären Stoffwechsels führt zu einem Anstieg des intrazellulären Cholesterins, einer Steigerung der Reacylierung des Cholesterins und Speicherung der Cholesterinester, die wiederum zur Ausbildung großer cytoplasmatischer Cholesterinesterdepots und zur Degeneration dieser Makrophagen ("Schaumzellen") führen. Die Schaumzellen sind das zelluläre Substrat des Atheroms und verursachen die makroskopisch sichtbaren Fettstreifen, aus denen sich dann die fibrösen Plaqueläsionen bei Fortschreiben der Erkrankung entwickeln. b) Die Grundlagen für eine antiatherosklerotische Therapie bei Fettstoffwechselstörungen Eine an die Kausalzusammenhänge orientierte antiatherosklerotische Therapie fußt idealerweise auf mindestens drei Säulen: 1. einer Senkung pathologisch erhöhter Lipidspiegel im Plasma durch Diät und/oder Pharmaka, 2. einem wirksamen Antioxidantienschutz besonders des stark atherogenen LDL zur Verminderung des oxidativen LDL-Katabolismus im Atherom und 3. einer Hemmung der Cholesterinesterbildung in den Schaumzellen der fettstreifigen Frühläsionen. Einige Senker des Serum-Cholesterins wirken, indem sie den hepatischen Pool des freien Cholesterins kontrahieren und den Katabolismus des atherogenen LDL-Cholesterins erhöhen: Ionenaustauscher interferieren z. B. mit dem enterhepatischen Cholesterinkreislauf, führen zur Depletion der Gallensäuren in den Hepatozyten und stimulieren die LDL-Cholesterinaufnahme aus dem Plasmakompartment durch eine vermehrte hepatische Aufnahme von Cholesterin über LDL und die hepatischen Apo B,E-Rezeptoren (LDL-Rezeptoren). Ähnlich wirken die Cholesterinsynthese-blocker, z. B. Lovastatin. Sie vermindern das hepatische Cholesterin und bedingen ebenfalls eine gesteigerte Aufnahme von LDL-Cholesterin aus dem Plasma über eine Vermehrung der LDL-Rezeptoren. Auch Hemmer der Cholesterinresorption bedingen eine Absenkung des hepatischen Cholesterinpools, indem sie die exogene diätetische Belastung durch Cholesterin reduzieren. Beispiele hierfür sind die sogenannten Acyl CoA: cholesterinacyltransferase (ACAT)-Hemmer, die in den Enterozyten den Cholesterinefflux via Chylomikronen durch die Hemmung der Veresterung freien Cholesterins unterbinden. In der Leber wird durch diese Hemmer der Cholesterinesterbildung zusätzlich das freie Cholesterin erhöht und die endogene hepatische Cholesterinbiosynthese durch Endprodukt-Hemmung indirekt gehemmt. In den Schaumzellen des Atheroms wird durch die Blockade der Cholesterinesterbildung erhöht freies Cholesterin in den "Reverse Cholesterol Transport pathway" der high-density lipoproteins (HDL) eingebracht, daraus entsteht ein zusätzlicher direkter antiatherogener Effekt. Antioxidantien sind Substanzen, die - allgemein gesehen - eine erhebliche Verzögerung der oxidativen Vorgänge bei einem zu schützenden Produkt bewirken. […] Es ist ein sterisch gehindertes Alkylphenol, das im LDL akkumuliert. […] Methode: 220-250 g schwere SD Ratten erhielten eine Standarddiät, die mit 2 % Cholesterin/0,2 % Cholsäure angereichert wurde, über 4 Tage. […]

| SMILES | inhibition at 10 µM (P 388 D.1 Makrophagen) [%] | IC50 (P 388 D.1 Makrophagen) [µM] | Stabilisierung von Plasma LDL: Verlängerung d. "lag-Phase" % (Plasma-LDL) [%] | other results |
| --- | --- | --- | --- | --- |
| CC(C)(C)c1cc(CNS(=O)(=O)c2ccc(Cl)cc2)cc(C(C)(C)C)c1O [Beispiel 2, 4-Chlorbenzolsulfo-(3,5-di-tert.butyl-4-hydroxy)benzylamid] | 78.7 | 2.5 | 44 |  |
| CN(Cc1cc(C(C)(C)C)c(O)c(C(C)(C)C)c1)S(=O)(=O)c1ccc(Cl)cc1 [Beispiel 3, N-Methyl-4-chlorbenzolsulfo-(3,5-di-tert.butyl-4-hydroxy)benzylamid] | 54.9 |  | 40 |  |
| CC(C)(C)c1cc(CCCNS(=O)(=O)c2ccc(Cl)cc2)cc(C(C)(C)C)c1O [Beispiel 4b] | 49.2 |  |  |  |
| CC(C)c1cc(C(C)C)c(S(=O)(=O)NCc2cc(C(C)(C)C)c(O)c(C(C)(C)C)c2)c(C(C)C)c1 [Beispiel 5.10, 2,4,6-tris-Isopropyl-benzolsulfo-(3,5-di-tert.butyl-4-hydroxy)benzylamid] | 60.3 | 7 | 99 |  |
| CC(C)c1cc(C(C)C)c(S(=O)(=O)NCCc2cc(C(C)(C)C)c(O)c(C(C)(C)C)c2)c(C(C)C)c1 [Beispiel 5.17] | 78 |  | 50 |  |
| CCCCS(=O)(=O)NCCCc1cc(C(C)(C)C)c(O)c(C(C)(C)C)c1 [Beispiel 5.19] | 43.8 |  |  |  |
| CC(C)(C)c1cc(CCNS(=O)(=O)c2ccc(F)cc2)cc(C(C)(C)C)c1O [Beispiel 5.28, 2-[4-Fluorbenzolsulfo-(3,5-di-tert.butyl-4-hydroxy)]-phenethylamid] | 92.6 | 1.2 | 25 | S-Cholesterin ([1]; 5 mg/kg/d by gavage in 2 ml Pflanzenöl): 187 +/- 23 mg %; S-Cholesterin ([1]; 15 mg/kg/d by gavage in 2 ml Pflanzenöl): 120 +/- 15 mg %; S-Cholesterin ([1]; 50 mg/kg/d by gavage in 2 ml Pflanzenöl): 114 +/- 14 mg %; S-Cholesterin ([1]; 100 mg/kg/d by gavage in 2 ml Pflanzenöl): 84 +/- 8 mg %; % Kontrollen ([1]; 5 mg/kg/d): 75%; % Kontrollen ([1]; 15 mg/kg/d): 48%; % Kontrollen ([1]; 50 mg/kg/d): 46%; % Kontrollen ([1]; 100 mg/kg/d): 33% |
| CC(Cc1cc(C(C)(C)C)c(O)c(C(C)(C)C)c1)NS(=O)(=O)C(C)C (stereo not drawn) [Beispiel 5.31] | 33.9 |  | 18 |  |
| CC(C)(Sc1cc(C(C)(C)C)c(O)c(C(C)(C)C)c1)Sc1cc(C(C)(C)C)c(O)c(C(C)(C)C)c1 [Probucol, reference compound] |  |  | 10 | Hemmung der Cholesterbildung (P 388 D.1 Makrophagen; reference substance at 10 »M, n=7, printed as positive inhibition): 25-42% |
